Assay results published in US20230016424A1, “HYBRID AMIDE DERIVATIVES OF AMPHOTERICIN B” (The Board of Trustees of the University of Illinois, priority 2019, published 2023).

What follows are compounds tested on C. albicans SN250, C. albicans, C. krusei, C. glabrata, C. tropicalis, A. fumigatus 91, 1163, 1100 (assay: Average MIC over the tested strains). Conditions: Table 7, C16 amide AmB variants.
Type: cell-based

| SMILES | MIC (Average Minimum Inhibition Concentration) [µM] |
| --- | --- |
| CC1C=CC=CC=CC=CC=CC=CC=CC(OC2OC(C)C(O)C(N)C2O)CC2OC(O)(CC(O)CC(O)C(O)CCC(O)CC(O)CC(=O)OC(C)C(C)C1O)CC(O)C2C(=O)NC1C(O)COC(O)C1O (mixture of isomers) [GE] | 0.320 |
| CC1C=CC=CC=CC=CC=CC=CC=CC(OC2OC(C)C(O)C(N)C2O)CC2OC(O)(CC(O)CC(O)C(O)CCC(O)CC(O)CC(=O)OC(C)C(C)C1O)CC(O)C2C(=O)NCCNS(C)(=O)=O (stereo not drawn) [EO] | 0.469 |
| CC1C=CC=CC=CC=CC=CC=CC=CC(OC2OC(C)C(O)C(N)C2O)CC2OC(O)(CC(O)CC(O)C(O)CCC(O)CC(O)CC(=O)OC(C)C(C)C1O)CC(O)C2C(=O)NC1CCNC1=O (stereo not drawn) [GC] | 0.320 |
| CC1C=CC=CC=CC=CC=CC=CC=CC(OC2OC(C)C(O)C(N)C2O)CC2OC(O)(CC(O)CC(O)C(O)CCC(O)CC(O)CC(=O)OC(C)C(C)C1O)CC(O)C2C(=O)NCCCCO (stereo not drawn) [EY] | 0.500 |
| CC1C=CC=CC=CC=CC=CC=CC=CC(OC2OC(C)C(O)C(N)C2O)CC2OC(O)(CC(O)CC(O)C(O)CCC(O)CC(O)CC(=O)OC(C)C(C)C1O)CC(O)C2C(=O)NCCCS(N)(=O)=O (stereo not drawn) [EP] | 0.484 |
| CC1C=CC=CC=CC=CC=CC=CC=CC(OC2OC(C)C(O)C(N)C2O)CC2OC(O)(CC(O)CC(O)C(O)CCC(O)CC(O)CC(=O)OC(C)C(C)C1O)CC(O)C2C(=O)NCCS(C)(=O)=O (stereo not drawn) [EE] | 0.422 |
| CC1C=CC=CC=CC=CC=CC=CC=CC(OC2OC(C)C(O)C(N)C2O)CC2OC(O)(CC(O)CC(O)C(O)CCC(O)CC(O)CC(=O)OC(C)C(C)C1O)CC(O)C2C(=O)NC1(C(N)=O)CNC1 (stereo not drawn) [GG] | 0.328 |
| CC1C=CC=CC=CC=CC=CC=CC=CC(OC2OC(C)C(O)C(N)C2O)CC2OC(O)(CC(O)CC(O)C(O)CCC(O)CC(O)CC(=O)OC(C)C(C)C1O)CC(O)C2C(=O)NC1CCC(N)CC1 (stereo not drawn) [DU] | 0.406 |
| CC1C=CC=CC=CC=CC=CC=CC=CC(OC2OC(C)C(O)C(N)C2O)CC2OC(O)(CC(O)CC(O)C(O)CCC(O)CC(O)CC(=O)OC(C)C(C)C1O)CC(O)C2C(=O)NC1C(CO)OC(n2cnc3c(N)ncnc32)C1O (mixture of isomers) [EA] | 0.422 |
| CC1C=CC=CC=CC=CC=CC=CC=CC(OC2OC(C)C(O)C(N)C2O)CC2OC(O)(CC(O)CC(O)C(O)CCC(O)CC(O)CC(=O)OC(C)C(C)C1O)CC(O)C2C(=O)NCC1CCCO1 (stereo not drawn) [EZ] | 0.516 |
| CC1C=CC=CC=CC=CC=CC=CC=CC(OC2OC(C)C(O)C(N)C2O)CC2OC(O)(CC(O)CC(O)C(O)CCC(O)CC(O)CC(=O)OC(C)C(C)C1O)CC(O)C2C(=O)NCC1OC(n2cnc3c(=O)[nH]c(N)nc32)C(O)C1O (stereo not drawn) [DM] | 0.391 |
| COCC(C)NC(=O)C1C(O)CC2(O)CC(O)CC(O)C(O)CCC(O)CC(O)CC(=O)OC(C)C(C)C(O)C(C)C=CC=CC=CC=CC=CC=CC=CC(OC3OC(C)C(O)C(N)C3O)CC1O2 (stereo not drawn) [EM] | 0.469 |
| CC1C=CC=CC=CC=CC=CC=CC=CC(OC2OC(C)C(O)C(N)C2O)CC2OC(O)(CC(O)CC(O)C(O)CCC(O)CC(O)CC(=O)OC(C)C(C)C1O)CC(O)C2C(=O)NC1C(O)OCC(O)C1O (stereo not drawn) [FU] | 0.289 |
| CC1C=CC=CC=CC=CC=CC=CC=CC(OC2OC(C)C(O)C(N)C2O)CC2OC(O)(CC(O)CC(O)C(O)CCC(O)CC(O)CC(=O)OC(C)C(C)C1O)CC(O)C2C(=O)NC(CO)C(N)=O (stereo not drawn) [FN] | 0.238 |
| CC1C=CC=CC=CC=CC=CC=CC=CC(OC2OC(C)C(O)C(N)C2O)CC2OC(O)(CC(O)CC(O)C(O)CCC(O)CC(O)CC(=O)OC(C)C(C)C1O)CC(O)C2C(=O)NC1CC(CO)C(O)C1O (stereo not drawn) [FS] | 2.81 |
| CC(NC(=O)C1C(O)CC2(O)CC(O)CC(O)C(O)CCC(O)CC(O)CC(=O)OC(C)C(C)C(O)C(C)C=CC=CC=CC=CC=CC=CC=CC(OC3OC(C)C(O)C(N)C3O)CC1O2)C(N)=O (stereo not drawn) [GJ] | 0.336 |
| CC1C=CC=CC=CC=CC=CC=CC=CC(OC2OC(C)C(O)C(N)C2O)CC2OC(O)(CC(O)CC(O)C(O)CCC(O)CC(O)CC(=O)OC(C)C(C)C1O)CC(O)C2C(=O)NC1CN(C(N)=O)C1 (stereo not drawn) [FB] | 0.516 |
| CC1C=CC=CC=CC=CC=CC=CC=CC(OC2OC(C)C(O)C(N)C2O)CC2OC(O)(CC(O)CC(O)C(O)CCC(O)CC(O)CC(=O)OC(C)C(C)C1O)CC(O)C2C(=O)NCCn1cncn1 (stereo not drawn) [FY] | 0.316 |
| CC1C=CC=CC=CC=CC=CC=CC=CC(OC2OC(C)C(O)C(N)C2O)CC2OC(O)(CC(O)CC(O)C(O)CCC(O)CC(O)CC(=O)OC(C)C(C)C1O)CC(O)C2C(=O)NCC1OC(O)C(O)C(O)C1O (stereo not drawn) [EF] | 0.430 |

| SMILES | MIC (Average Minimum Inhibition Concentration) [µM] |
| --- | --- |
| CC1C=CC=CC=CC=CC=CC=CC=CC(OC2OC(C)C(O)C(N)C2O)CC2OC(O)(CC(O)CC(O)C(O)CCC(O)CC(O)CC(=O)OC(C)C(C)C1O)CC(O)C2C(=O)NCC(O)C(O)C(O)C(O)CO (stereo not drawn) [FW] | 0.313 |
| CC1C=CC=CC=CC=CC=CC=CC=CC(OC2OC(C)C(O)C(N)C2O)CC2OC(O)(CC(O)CC(O)C(O)CCC(O)CC(O)CC(=O)OC(C)C(C)C1O)CC(O)C2C(=O)NC1C(O)OC(CO)C(O)C1O (mixture of isomers) [GL] | 0.344 |
| CC1C=CC=CC=CC=CC=CC=CC=CC(OC2OC(C)C(O)C(N)C2O)CC2OC(O)(CC(O)CC(O)C(O)CCC(O)CC(O)CC(=O)OC(C)C(C)C1O)CC(O)C2C(=O)NC1(C(N)=O)CC1 (stereo not drawn) [FG] | 0.531 |
| CC1C=CC=CC=CC=CC=CC=CC=CC(OC2OC(C)C(O)C(N)C2O)CC2OC(O)(CC(O)CC(O)C(O)CCC(O)CC(O)CC(=O)OC(C)C(C)C1O)CC(O)C2C(=O)NCCC#N (stereo not drawn) [EK] | 0.438 |
| CC1C=CC=CC=CC=CC=CC=CC=CC(OC2OC(C)C(O)C(N)C2O)CC2OC(O)(CC(O)CC(O)C(O)CCC(O)CC(O)CC(=O)OC(C)C(C)C1O)CC(O)C2C(=O)NC1CNC1=O (stereo not drawn) [ES] | 0.484 |
| CC1C=CC=CC=CC=CC=CC=CC=CC(OC2OC(C)C(O)C(N)C2O)CC2OC(O)(CC(O)CC(O)C(O)CCC(O)CC(O)CC(=O)OC(C)C(C)C1O)CC(O)C2C(=O)NCCCO (stereo not drawn) [GA] | 0.320 |
| CC(O)CNC(=O)C1C(O)CC2(O)CC(O)CC(O)C(O)CCC(O)CC(O)CC(=O)OC(C)C(C)C(O)C(C)C=CC=CC=CC=CC=CC=CC=CC(OC3OC(C)C(O)C(N)C3O)CC1O2 (stereo not drawn) [FJ] | 0.195 |
| CC1C=CC=CC=CC=CC=CC=CC=CC(OC2OC(C)C(O)C(N)C2O)CC2OC(O)(CC(O)CC(O)C(O)CCC(O)CC(O)CC(=O)OC(C)C(C)C1O)CC(O)C2C(=O)N1CCNC(=O)C1 (stereo not drawn) [FH] | 0.531 |
| CC1C=CC=CC=CC=CC=CC=CC=CC(OC2OC(C)C(O)C(N)C2O)CC2OC(O)(CC(O)CC(O)C(O)CCC(O)CC(O)CC(=O)OC(C)C(C)C1O)CC(O)C2C(=O)NCC(C)(C)C(N)=O (stereo not drawn) [EC] | 0.422 |
| CC1C=CC=CC=CC=CC=CC=CC=CC(OC2OC(C)C(O)C(N)C2O)CC2OC(O)(CC(O)CC(O)C(O)CCC(O)CC(O)CC(=O)OC(C)C(C)C1O)CC(O)C2C(=O)NC1CC1 (stereo not drawn) [EI] | 0.438 |
| O=CO [FA] | 0.516 |
| COC1OC(CO)C(O)C(NC(=O)C2C(O)CC3(O)CC(O)CC(O)C(O)CCC(O)CC(O)CC(=O)OC(C)C(C)C(O)C(C)C=CC=CC=CC=CC=CC=CC=CC(OC4OC(C)C(O)C(N)C4O)CC2O3)C1O (mixture of isomers) [FO] | 0.258 |
| CC1C=CC=CC=CC=CC=CC=CC=CC(OC2OC(C)C(O)C(N)C2O)CC2OC(O)(CC(O)CC(O)C(O)CCC(O)CC(O)CC(=O)OC(C)C(C)C1O)CC(O)C2C(=O)NC1C(O)OC(CO)C(O)C1O (stereo not drawn) [FL] | 0.227 |
| CC1C=CC=CC=CC=CC=CC=CC=CC(OC2OC(C)C(O)C(N)C2O)CC2OC(O)(CC(O)CC(O)C(O)CCC(O)CC(O)CC(=O)OC(C)C(C)C1O)CC(O)C2C(=O)NC(CO)CO (stereo not drawn) [DD] | 0.375 |
| CC1C=CC=CC=CC=CC=CC=CC=CC(OC2OC(C)C(O)C(N)C2O)CC2OC(O)(CC(O)CC(O)C(O)CCC(O)CC(O)CC(=O)OC(C)C(C)C1O)CC(O)C2C(=O)NCCCCCO (stereo not drawn) [FF] | 0.531 |
| CC1C=CC=CC=CC=CC=CC=CC=CC(OC2OC(C)C(O)C(N)C2O)CC2OC(O)(CC(O)CC(O)C(O)CCC(O)CC(O)CC(=O)OC(C)C(C)C1O)CC(O)C2C(=O)NCC(C)(C)F (stereo not drawn) [EN] | 0.469 |
| CC1C=CC=CC=CC=CC=CC=CC=CC(OC2OC(C)C(O)C(N)C2O)CC2OC(O)(CC(O)CC(O)C(O)CCC(O)CC(O)CC(=O)OC(C)C(C)C1O)CC(O)C2C(=O)NCCN1CCOC1=O (stereo not drawn) [ER] | 0.484 |
| CNC(=O)CNC(=O)C1C(O)CC2(O)CC(O)CC(O)C(O)CCC(O)CC(O)CC(=O)OC(C)C(C)C(O)C(C)C=CC=CC=CC=CC=CC=CC=CC(OC3OC(C)C(O)C(N)C3O)CC1O2 (stereo not drawn) [GN] | 0.344 |
| CC1C=CC=CC=CC=CC=CC=CC=CC(OC2OC(C)C(O)C(N)C2O)CC2OC(O)(CC(O)CC(O)C(O)CCC(O)CC(O)CC(=O)OC(C)C(C)C1O)CC(O)C2C(=O)NC1COCC1O (stereo not drawn) [EU] | 0.500 |

Same assay, conditions: Table 12, C16 amides of C2'epiAmB

| SMILES | Average MIC [µM] |
| --- | --- |
| CC1C=CC=CC=CC=CC=CC=CC=CC(OC2OC(C)C(O)C(N)C2O)CC2OC(O)(CC(O)CC(O)C(O)CCC(O)CC(O)CC(=O)OC(C)C(C)C1O)CC(O)C2C(=O)NC1CCC1 (stereo not drawn) [BW] | 5.563 |
| CC1C=CC=CC=CC=CC=CC=CC=CC(OC2OC(C)C(O)C(N)C2O)CC2OC(O)(CC(O)CC(O)C(O)CCC(O)CC(O)CC(=O)OC(C)C(C)C1O)CC(O)C2C(=O)NCCC(N)=O (stereo not drawn) [BU] | 2.563 |
| CNC(=O)C1C(O)CC2(O)CC(O)CC(O)C(O)CCC(O)CC(O)CC(=O)OC(C)C(C)C(O)C(C)C=CC=CC=CC=CC=CC=CC=CC(OC3OC(C)C(O)C(N)C3O)CC1O2 (stereo not drawn) [BS] | 1.734 |
| CC1C=CC=CC=CC=CC=CC=CC=CC(OC2OC(C)C(O)C(N)C2O)CC2OC(O)(CC(O)CC(O)C(O)CCC(O)CC(O)CC(=O)OC(C)C(C)C1O)CC(O)C2C(=O)NCCN (stereo not drawn) [BT] | 1.750 |
